According to ChEMBL document CHEMBL6182905, “Fluorinated sulfonamide-flavonoid derivatives as novel Keap1-Nrf2 inhibitors: Potent induction of cytoprotective gene HO-1 in vivo” (Eur J Med Chem, 2025):

What follows are molecules tested on AML12 (assay: Activation of Nrf2 in LPS-stimulated mouse AML12 cells assessed as fold increase in HO-1 gene expression at 10 uM incubated for 16 hrs). Conditions: filed as activator.
Assay type: cell-based
For `CCc1ccc(S(=O)(=O)Nc2ccc3c(=O)cc(-c4ccc(OC)cc4)oc3c2)cc1`, the fold change (FC) was 5.
`COc1ccc(-c2cc(=O)c3ccc(NS(=O)(=O)c4cccs4)cc3o2)cc1` gave a fold change (FC) of 3.4.
`COC(=O)CN(c1ccc2c(=O)cc(-c3ccc(OC)cc3)oc2c1)S(=O)(=O)c1ccc(OC)cc1` gave a fold change (FC) of 3.5.
In the case of `COc1ccc(-c2cc(=O)c3ccc(NS(=O)(=O)c4ccc(F)cc4Br)cc3o2)cc1`, the fold change (FC) is reported as 3.2.
`COc1ccc(-c2cc(=O)c3ccc(NS(=O)(=O)c4ccc(F)c(Br)c4)cc3o2)cc1` was tested, and the fold change (FC) was 4.2.
`COc1ccc(-c2cc(=O)c3ccc(NS(=O)(=O)c4ccc(OC)cc4)cc3o2)cc1` showed a fold change (FC) of 4.6.
`C[S+]([O-])CCCCN=C=S` (configuration not stated) gave a fold change (FC) of 5.8.
Molecule `COc1ccc(-c2cc(=O)c3ccc(NS(=O)(=O)c4ccc(C(C)C)cc4)cc3o2)cc1` has a fold change (FC) of 3.4.
With `COc1ccc(-c2cc(=O)c3ccc(NS(=O)(=O)c4ccc(OC)cc4OC)cc3o2)cc1` the fold change (FC) was 4.
Molecule `CCCCOc1ccc(S(=O)(=O)Nc2ccc3c(=O)cc(-c4ccc(OC)cc4)oc3c2)cc1` has a fold change (FC) of 2.3.
`COc1ccc(-c2cc(=O)c3ccc(NS(=O)(=O)c4ccc(OC(F)(F)F)cc4)cc3o2)cc1` was tested, and the fold change (FC) was 7.
`COc1ccc(-c2cc(=O)c3ccc(N(CC(N)=O)S(=O)(=O)c4ccc(OC)cc4)cc3o2)cc1` showed a fold change (FC) of 2.3.
For `COc1ccc(-c2cc(=O)c3ccc(NS(=O)(=O)c4cccc(OC(F)(F)F)c4)cc3o2)cc1`, the fold change (FC) was 4.2.
`COc1ccc(-c2cc(=O)c3ccc(NS(=O)(=O)c4ccccc4OC)cc3o2)cc1` showed a fold change (FC) of 3.3.
`COc1ccc(-c2cc(=O)c3ccc(NS(=O)(=O)c4ccc([N+](=O)[O-])cc4)cc3o2)cc1` was tested, and the fold change (FC) was 3.3.
`COc1ccc(-c2cc(=O)c3ccc(NS(=O)(=O)c4cccnc4)cc3o2)cc1` gave a fold change (FC) of 5.3.
`COc1ccc(-c2cc(=O)c3ccc(NS(=O)(=O)c4ccccc4F)cc3o2)cc1` was tested, and the fold change (FC) was 3.4.
`COc1ccc(-c2cc(=O)c3ccc(NS(=O)(=O)c4cccc(F)c4)cc3o2)cc1` gave a fold change (FC) of 4.5.
For `O=C1C[C@@H](c2ccc(O)cc2)Oc2cc(O)ccc21`, the fold change (FC) was 2.
`O=C1c2c(O)cc(O)cc2O[C@H](c2cc(O)c(O)c(O)c2)[C@H]1O` gave a fold change (FC) of 1.4.
`COc1ccc(-c2cc(=O)c3ccc(NS(=O)(=O)c4ccc(C(F)(F)F)cc4)cc3o2)cc1` gave a fold change (FC) of 4.8.
`COc1ccc(-c2cc(=O)c3ccc(NS(=O)(=O)c4ccc(C)cc4C)cc3o2)cc1` showed a fold change (FC) of 3.
Work on `COc1ccc(-c2cc(=O)c3ccc(NS(=O)(=O)c4ccc(F)c(Cl)c4)cc3o2)cc1` yielded a fold change (FC) of 4.
Molecule `COc1ccc(-c2cc(=O)c3ccc(NS(=O)(=O)c4ccc(F)cc4Cl)cc3o2)cc1` has a fold change (FC) of 3.6.
With `O=c1cc(-c2ccc(O)cc2)oc2cc(O)cc(O)c12` the fold change (FC) was 1.8.
`COc1ccc(-c2cc(=O)c3ccc(NS(=O)(=O)c4c(C)c(C)cc(C)c4C)cc3o2)cc1` showed a fold change (FC) of 2.8.
Work on `COC(=O)CN(c1ccc2c(=O)cc(-c3ccc(OC)cc3)oc2c1)S(=O)(=O)c1ccc(C(F)(F)F)cc1` yielded a fold change (FC) of 2.6.
Molecule `COc1ccc(-c2cc(=O)c3ccc(NS(=O)(=O)c4cccc(OC)c4)cc3o2)cc1` has a fold change (FC) of 3.7.
`COC(=O)CN(c1ccc2c(=O)cc(-c3ccc(OC)cc3)oc2c1)S(=O)(=O)c1ccc(F)cc1` showed a fold change (FC) of 4.8.
For `COc1ccc(-c2cc(=O)c3ccc(NS(=O)(=O)c4ccccc4OC(F)(F)F)cc3o2)cc1`, the fold change (FC) was 3.9.
For `COc1ccc(-c2cc(=O)c3ccc(NS(=O)(=O)c4ccc(C)cc4)cc3o2)cc1`, the fold change (FC) was 3.1.
In the case of `O=c1c(O)c(-c2ccc(O)c(O)c2)oc2cc(O)cc(O)c12`, the fold change (FC) is reported as 1.4.
